Measurements reported in US12459974B2, “Bicyclic peptide ligands specific for Nectin-4” (priority 2018, dated 2025).
*1 amine or outer side, *2 acyl side, *3 side chain or, on linkers, in order; H or OH if unused. Where a SMILES comes first, the peptide text is derived from it. Bridges are numbered along the chain shown (N, C = ends). Roman numbers before positions name the chains, in order. [ ]: non-standard residue; d: D form. The star is where a group is joined. ξ: configuration not given here. TATA = O=C(CC[*:1])N1CN(C(=O)CC[*:2])CN(C(=O)CC[*:3])C1; Dolaproine = CO[C@@H]([C@@H]1CCCN1)[C@@H](C)C(=O)O; X1 = CC[C@H](C)C(C(CC(=O)[*:2])OC)N(C)[*:1]; 1Nal = N[C@@H](Cc1cccc2ccccc12)C(=O)O; X3 = O=C(CCCC(=O)[*:2])NCCC(=O)[*:1]; PABC = O=C(OCc1ccc(N[*:1])cc1)[*:2]; Hyp = O=C(O)[C@@H]1C[C@@H](O)CN1; hArg = N=C(N)NCCCC[C@H](N)C(=O)O; Cit = NC(=O)NCCC[C@H](N)C(=O)O; X2 = CC(N*)[C@@H](O)c1ccccc1; ξNMeV = CNC(C(=O)O)C(C)C; ξV = CC(C)C(N)C(=O)O; Sar = CNCC(=O)O

Assays:
Parameters in all cases: species or system Mus Musculus
[1] = test system: LU-01-0007 PDX; assay: Example 12: in vivo efficacy in LU-01-0007 PDX model of lung cancer
Method: Animals were checked daily for any effects of tumor growth and treatments on normal behavior such as mobility, food and water consumption (by looking only), body weight gain/loss, eye/hair matting and any other abnormal effect as stated in the protocol. Death and observed clinical signs were recorded on the basis of the numbers of animals within each subset.

[2] = test system: HCT116 xenograft; assay: Example 9.2: in vivo efficacy in HCT116 xenograft in Balb/c nude mice; conditions: for TGI / Tumor volume (TV) / Tumor volume / T/C: day 14; for Tumor volume trace over time / Tumor volume: mean ± SEM; for T/C: treated/control group average tumor volume
[3] = test system: MDA-MB-468 xenograft; assay: Example 4: in vivo efficacy in MDA-MB-468 xenograft (breast cancer model) in Balb/c nude mice

## CC[C@H](C)C(C(CC(=O)N1CCC[C@H]1[C@H](OC)[C@@H](C)C(=O)NC(C)[C@@H](O)c1ccccc1)OC)N(C)C(=O)[C@@H](NC(=O)C(C(C)C)N(C)C(=O)OCc1ccc(NC(=O)[C@H](CCCNC(N)=O)NC(=O)C(NC(=O)CCCC(=O)NCCC(=O)N(C)CC(=O)N(C)CC(=O)N(C)CC(=O)N(C)CC(=O)N(C)CC(=O)N(C)CC(=O)N(C)CC(=O)N(C)CC(=O)N(C)CC(=O)N(C)CC(=O)N[C@H]2CSCCC(=O)N3CN4CN(C3)C(=O)CCSC[C@H](NC(=O)[C@@H](CC(=O)O)NC(=O)[C@H](Cc3cccc5ccccc35)NC(=O)[C@@H]3CCCN3C2=O)C(=O)N[C@@H](CCSC)C(=O)N[C@@H](CCCCNC(=N)N)C(=O)N[C@@H](CC(=O)O)C(=O)N[C@@H](Cc2c[nH]c3ccccc23)C(=O)N[C@@H](CO)C(=O)N[C@@H]([C@@H](C)O)C(=O)N2CCC[C@H]2C(=O)N2C[C@H](O)C[C@H]2C(=O)N[C@@H](Cc2c[nH]c3ccccc23)C(=O)N[C@H](C(N)=O)CSCCC4=O)C(C)C)cc1)C(C)C (stereo partly drawn) [BCY8245, MMAE-PABC-Cit-Val-Glutaryl-BCY8234] (I: [Sar][Sar][Sar][Sar][Sar][Sar][Sar][Sar][Sar][Sar]CP[1Nal][dD]CM[hArg]DWSTP[Hyp]WC-NH2 / II: [ξV][Cit][PABC][ξNMeV]V[X1][Dolaproine]-X2; linker I:11-I:15-I:25 via TATA; linker I:N-II:N via X3)
[1]; 1 mg/kg qw
  efficacy (in words): stable disease
[1]; 3 mg/kg, after dosing ceased, out to 126 days post study start
  tumor regrowth (in words): no tumor regrowth
[1]; 3 mg/kg, dosing maintained out to day 56
  efficacy (in words): full regression
[2]; 3 mg/kg biw
  TGI: 94.9%
  Tumor volume (TV): 197 mm^3
[2]; 3 mg/kg qw
  TGI: 57.1%
  Tumor volume (TV): 425 mm^3
[2]; 5 mg/kg qw
  TGI: 105.2%
  Tumor volume (TV): 134 mm^3
[2]; 3 mpk, biw, iv, day 0 after the start of treatment
  Tumor volume trace over time: 166 ± 18 mm^3
[2]; 3 mpk, biw, iv, day 2 after the start of treatment
  Tumor volume trace over time: 229 ± 40 mm^3
[2]; 3 mpk, biw, iv, day 4 after the start of treatment
  Tumor volume trace over time: 215 ± 42 mm^3
[2]; 3 mpk, biw, iv, day 7 after the start of treatment
  Tumor volume trace over time: 213 ± 49 mm^3
[2]; 3 mpk, biw, iv, day 9 after the start of treatment
  Tumor volume trace over time: 213 ± 48 mm^3
[2]; 3 mpk, biw, iv, day 12 after the start of treatment
  Tumor volume trace over time: 206 ± 55 mm^3
[2]; 3 mpk, biw, iv
  TGI: 94.9%
  Tumor volume: 197 ± 50 mm^3
  T/C: 25.6%
[2]; 3 mpk, biw, iv, day 14 after the start of treatment
  Tumor volume trace over time: 197 ± 50 mm^3
[2]; 3 mpk, qw, iv, day 0 after the start of treatment
  Tumor volume trace over time: 167 ± 11 mm^3
[2]; 3 mpk, qw, iv, day 2 after the start of treatment
  Tumor volume trace over time: 209 ± 13 mm^3
[2]; 3 mpk, qw, iv, day 4 after the start of treatment
  Tumor volume trace over time: 227 ± 17 mm^3
[2]; 3 mpk, qw, iv, day 7 after the start of treatment
  Tumor volume trace over time: 269 ± 33 mm^3
[2]; 3 mpk, qw, iv, day 9 after the start of treatment
  Tumor volume trace over time: 324 ± 39 mm^3
[2]; 3 mpk, qw, iv, day 12 after the start of treatment
  Tumor volume trace over time: 348 ± 27 mm^3
[2]; 3 mpk, qw, iv
  TGI: 57.1%
  Tumor volume: 425 ± 28 mm^3
  T/C: 55.2%
[2]; 3 mpk, qw, iv, day 14 after the start of treatment
  Tumor volume trace over time: 425 ± 28 mm^3
[2]; 5 mpk, qw, iv, day 0 after the start of treatment
  Tumor volume trace over time: 166 ± 35 mm^3
[2]; 5 mpk, qw, iv, day 2 after the start of treatment
  Tumor volume trace over time: 201 ± 42 mm^3
[2]; 5 mpk, qw, iv, day 4 after the start of treatment
  Tumor volume trace over time: 176 ± 15 mm^3
[2]; 5 mpk, qw, iv, day 7 after the start of treatment
  Tumor volume trace over time: 183 ± 17 mm^3
[2]; 5 mpk, qw, iv, day 9 after the start of treatment
  Tumor volume trace over time: 170 ± 16 mm^3
[2]; 5 mpk, qw, iv, day 12 after the start of treatment
  Tumor volume trace over time: 125 ± 18 mm^3
[2]; 5 mpk, qw, iv
  TGI: 105.2%
  Tumor volume: 134 ± 12 mm^3
  T/C: 17.4%
[2]; 5 mpk, qw, iv, day 14 after the start of treatment
  Tumor volume trace over time: 134 ± 12 mm^3
[2]; mouse, in vivo
  tumor response (in words): tumor growth is restrained by BCY8245 but the tumor does not undergo regression
[3]; 3 mg/kg biw, day 21
  TGI: 169.8%
  Tumor volume (TV): 22 mm^3
[3]; 3 mg/kg qw, day 21
  TGI: 144.2%
  Tumor volume (TV): 85 mm^3
[3]; 5 mg/kg qw, day 21
  TGI: 168.4%
  Tumor volume (TV): 29 mm^3
[3]; 3 mpk, biw, iv, day 0 after start of treatment
  Tumor volume: 195 ± 33 mm^3
[3]; 3 mpk, biw, iv, day 2
  Tumor volume: 193 ± 27 mm^3
[3]; 3 mpk, biw, iv, day 4
  Tumor volume: 154 ± 20 mm^3
[3]; 3 mpk, biw, iv, day 7
  Tumor volume: 103 ± 20 mm^3
[3]; 3 mpk, biw, iv, day 9
  Tumor volume: 83 ± 16 mm^3
[3]; 3 mpk, biw, iv, day 11
  Tumor volume: 67 ± 14 mm^3
[3]; 3 mpk, biw, iv, day 14
  Tumor volume: 49 ± 11 mm^3
[3]; 3 mpk, biw, iv, day 16
  Tumor volume: 45 ± 14 mm^3
[3]; 3 mpk, biw, iv, day 18
  Tumor volume: 32 ± 12 mm^3
[3]; 3 mpk, biw, iv, day 21
  Tumor volume: 22 ± 4 mm^3
[3]; 3 mpk, biw, day 21
  T/C: 4.9%
  TGI: 169.8%
[3]; 3 mpk, biw, day 21, Mean ± SEM (Table 22)
  Tumor volume: 22 ± 4 mm^3
[3]; 3 mpk, qw, iv, day 0 after start of treatment
  Tumor volume: 194 ± 12 mm^3
[3]; 3 mpk, qw, iv, day 2
  Tumor volume: 192 ± 26 mm^3
[3]; 3 mpk, qw, iv, day 4
  Tumor volume: 184 ± 20 mm^3
[3]; 3 mpk, qw, iv, day 7
  Tumor volume: 131 ± 20 mm^3
[3]; 3 mpk, qw, iv, day 9
  Tumor volume: 113 ± 17 mm^3
[3]; 3 mpk, qw, iv, day 11
  Tumor volume: 104 ± 13 mm^3
[3]; 3 mpk, qw, iv, day 14
  Tumor volume: 94 ± 25 mm^3
[3]; 3 mpk, qw, iv, day 16
  Tumor volume: 81 ± 23 mm^3
[3]; 3 mpk, qw, iv, day 18
  Tumor volume: 87 ± 23 mm^3
[3]; 3 mpk, qw, iv, day 21
  Tumor volume: 85 ± 31 mm^3
[3]; 3 mpk, qw, day 21
  T/C: 18.9%
  TGI: 144.2%
[3]; 3 mpk, qw, day 21, Mean ± SEM (Table 22)
  Tumor volume: 85 ± 31 mm^3
[3]; 5 mpk, qw, dosing suspended from day 21, day 23
  Tumor volume: 35 ± 5 mm^3
[3]; 5 mpk, qw, dosing suspended from day 21, day 25
  Tumor volume: 48 ± 5 mm^3
[3]; 5 mpk, qw, dosing suspended from day 21, day 28
  Tumor volume: 37 ± 7 mm^3
[3]; 5 mpk, qw, dosing suspended from day 21, day 32
  Tumor volume: 28 ± 6 mm^3
[3]; 5 mpk, qw, dosing suspended from day 21, day 35
  Tumor volume: 24 ± 4 mm^3
[3]; 5 mpk, qw, dosing suspended from day 21, day 39
  Tumor volume: 28 ± 6 mm^3
[3]; 5 mpk, qw, dosing suspended from day 21, day 42
  Tumor volume: 26 ± 6 mm^3
[3]; 5 mpk, qw, iv, day 0 after start of treatment
  Tumor volume: 199 ± 28 mm^3
[3]; 5 mpk, qw, iv, day 2
  Tumor volume: 193 ± 11 mm^3
[3]; 5 mpk, qw, iv, day 4
  Tumor volume: 135 ± 4 mm^3
[3]; 5 mpk, qw, iv, day 7
  Tumor volume: 98 ± 5 mm^3
